The values that follow come from the NIST ThermoML archive (doi:10.1021/je5005559).

The conditions of data set [1]: for mass density: 298.15 K, 101.33 kPa.
Data set [2] is described as follows: refractive index (Na D-line) (dimensionless). To be noted: 298.15 K; 101.33 kPa; Liquid; Standard Abbe refractometry.
The nature of data set [3]: Boiling temperature at pressure P. To be noted: 101 kPa; Liquid; Distillation.

Numbers after ± are expanded uncertainties.

In general, mass density refers to the mass of a sample divided by its volume. As a reminder, the refractive index is a measure of how strongly the sample bends light.

Consider `Oc1ccccc1O` [1,2-benzenediol], for which the mass density in data set [1] (Crystal, Pycnometric method) is given as 1346 ± 3 kg/m3. For the same molecule, the Normal melting temperature in data set [1] (Crystal, visual observation) turned out to be 105.70 ± 1.1 °C.

On to `CC(=O)CC(C)C` [4-methylpentan-2-one], for which the refractive index in data set [2] was determined as 1.3965 ± 0.0008. The mass density in data set [1] (Liquid, Vibrating tube method) is on record as 799 ± 2 kg/m3. Further, the “Boiling temperature at pressure P” value in data set [3] turned out to be 116.60 ± 0.2 °C.
